≈ marks a conversion by molar mass, not a printed value.
Assays:
[1] = system: Plasmodium falciparum; test: Antiplasmodial activity against asexual blood-stage Plasmodium falciparum Tm90-C2B using 2% haematocrit and 0.2% parasitemia assessed as reduction in fluorescence measured after 72 hrs by Malaria SYBR Green I-based Fluorescence (MSF) assay; format: functional, organism-based
[2] = system: Plasmodium falciparum; test: microbe, parasite or virus in culture; conditions: Dd2, 72 h
Description: Antiplasmodial activity against asexual blood-stage Plasmodium falciparum Dd2 using 2% haematocrit and 0.2% parasitemia assessed as reduction in fluorescence measured after 72 hrs by Malaria SYBR Green I-based Fluorescence (MSF) assay

[3] = system: Plasmodium falciparum; test: microbe, parasite or virus in culture; conditions: D6, 72 h
Description: Antiplasmodial activity against asexual blood-stage Plasmodium falciparum D6 using 2% haematocrit and 0.2% parasitemia assessed as reduction in fluorescence measured after 72 hrs by Malaria SYBR Green I-based Fluorescence (MSF) assay

[4] = in vitro; conditions: mouse, liver microsomes
[5] = Solubility of the compound in potassium phosphate buffer at pH 7.4 by UV-vis spectroscopy; conditions: buffer
[6] = system: MDR1 (human); test: Apparent permeability across apical to basolateral side in MDCK transfected with human MDR1 cells incubated for 1 hr by LC-MS analysis; conditions: dog, MDCK-MDR1
[7] = system: HepG2; test: Cytotoxicity against human HepG2 cells assessed as cell viability measured after 48 hrs by MTT assay; format: toxicity, cell-based; conditions: hepg2
[8] = in vitro; conditions: human, liver microsomes
[9] = system: Plasmodium yoelii; test: Antimalarial activity against erythrocytic Plasmodium yoelii MRA-428 infected in CF1 mouse assessed as reduction in parasitemia at 10 mg/kg, po once daily for 4 days measured on day 5; format: functional; set-up: scale not given: the % may be the effect or the level left; conditions: time 4 day
[10] = Metabolic stability in human liver microsomes assessed as half life measured up to 60 mins by LC/MS analysis; format: ADME, Microsome
[11] = Metabolic stability in mouse liver microsomes assessed as half life measured up to 60 mins by LC/MS analysis; format: ADME, Microsome
[12] = system: MDR1 (human); test: Apparent permeability across basolateral to apical side in MDCK transfected with human MDR1 cells incubated for 1 hr by LC-MS analysis; conditions: dog, MDCK-MDR1

| SMILES | IC50 [3] | IC50 [1] | IC50 [2] | microsomal CLint at 1 h [4] | solubility [5] | Papp A→B at 1 h [6] | IC50 [7] | microsomal CLint at 1 h [8] | Activity [9] | half-life [10] | half-life [11] | Papp B→A at 1 h [12] |
| --- | --- | --- | --- | --- | --- | --- | --- | --- | --- | --- | --- | --- |
| COc1ccc(C2=C(c3ccc(OC)cc3)/C(=C/NC3CCCCC3)N=C2c2ccc[nH]2)cc1 |  | 187 nM | 343 nM |  |  |  |  |  |  |  |  |  |
| CCC1=C(CC)/C(=C/NC2CCCCC2)N=C1c1ccc(C#N)[nH]1 | 1600 nM | > 2500 nM | > 2500 nM |  |  |  |  |  |  |  |  |  |
| CCC1=C(CC)/C(=C/NC2CCCCC2)N=C1c1ccc(-c2ccc(OC)cc2)[nH]1 | 33.8 nM | 18 nM | 41.1 nM | 21.8 µL/min/mg | < 3.125 µM | 0.01 ×10⁻⁶ cm/s | 6570 nM | 4.54 µL/min/mg | 18.5% | > 60 min | > 60 min | 0.003 ×10⁻⁶ cm/s |
| C(/NC12C[C@H]3C[C@@H](C1)C[C@@H](C2)C3)=C1/N=C(c2ccc[nH]2)C(Oc2ccccc2)=C1Oc1ccccc1 | 617 nM | 456 nM | 787 nM |  |  |  |  |  |  |  |  |  |
| CCC1=C(CC)/C(=C/NC2CCCCCCC2)N=C1c1ccc(C#N)[nH]1 | > 2500 nM | > 2500 nM | > 2500 nM |  |  |  |  |  |  |  |  |  |
| CCc1ccc(-c2[nH]c(C(=O)NC34C[C@H]5C[C@@H](C3)C[C@@H](C4)C5)c(CC)c2CC)[nH]1 | > 2500 nM | > 2500 nM | > 2500 nM |  |  |  |  |  |  |  |  |  |
| C(/NC1CCCCC1)=C1/N=C(c2ccc[nH]2)C(Oc2ccccc2)=C1Oc1ccccc1 | > 2500 nM | > 2500 nM | > 2500 nM |  |  |  |  |  |  |  |  |  |
| C(/NC1CCCCC1)=C1/N=C(c2ccc[nH]2)C(c2ccccc2)=C1c1ccccc1 | 1520 nM | 1700 nM | 1280 nM |  |  |  |  |  |  |  |  |  |
| COc1ccc(OC2=C(Oc3ccc(OC)cc3)/C(=C/NC34C[C@H]5C[C@@H](C3)C[C@@H](C4)C5)N=C2c2ccc[nH]2)cc1 | 228 nM | 184 nM | 113 nM |  |  |  |  |  |  |  |  |  |
| CCC1=C(CC)/C(=C/NC23C[C@H]4C[C@@H](C2)C[C@@H](C3)C4)N=C1c1ccn[nH]1 | > 2500 nM | > 2500 nM | > 2500 nM |  |  |  |  |  |  |  |  |  |
| CCC1=C(CC)/C(=C/NC2CCCCCCC2)N=C1c1ccc(-c2ccccc2)[nH]1 | 39 nM | 65.5 nM | 48.2 nM | 26.5 µL/min/mg | 4.62 µM (≈ 1.86 µg/mL) | 0.004 ×10⁻⁶ cm/s | 8960 nM | 42.1 µL/min/mg | 37.4% | 32.9 min | 52.2 min | 0.002 ×10⁻⁶ cm/s |
| CCC1=C(CC)/C(=C/NC2CCCCCC2)N=C1c1ccc(C#N)[nH]1 | > 2500 nM | > 2500 nM | > 2500 nM |  |  |  |  |  |  |  |  |  |
| CCC1=C(CC)/C(=C/NC2CCCCC2)N=C1c1ccc(-c2ccccc2)[nH]1 | 24.8 nM | 13.8 nM | 27.5 nM | 17.6 µL/min/mg | < 3.125 µM | 0.012 ×10⁻⁶ cm/s | 4730 nM | 15.9 µL/min/mg | 0% | > 60 min | > 60 min | 0.003 ×10⁻⁶ cm/s |
| CCC1=C(CC)/C(=C/NC2CCCCC2)N=C1c1ccccc1F | > 2500 nM | > 2500 nM | > 2500 nM |  |  |  |  |  |  |  |  |  |
| CCC1=C(CC)/C(=C/NC2CCCCCC2)N=C1c1ccc(-c2ccccc2)[nH]1 |  | 19.8 nM | 30.2 nM | 115 µL/min/mg | 13.1 µM (≈ 5.08 µg/mL) |  | 5640 nM | 61.5 µL/min/mg | 10.5% | 22.5 min | 12.1 min | 0.002 ×10⁻⁶ cm/s |

Continued, in another order:

| IC50 [3] | SMILES | IC50 [1] | IC50 [2] | microsomal CLint at 1 h [4] | solubility [5] | Papp A→B at 1 h [6] | IC50 [7] | microsomal CLint at 1 h [8] | Activity [9] | half-life [10] | half-life [11] | Papp B→A at 1 h [12] |
| --- | --- | --- | --- | --- | --- | --- | --- | --- | --- | --- | --- | --- |
| 1080 nM | CCC1=C(CC)/C(=C/NC2CCCCC2)N=C1c1cc2cc(OC)ccc2[nH]1 | 2290 nM | > 2500 nM |  |  |  |  |  |  |  |  |  |
| > 2500 nM | CCC1=C(CC)/C(=C/NC2CCCCC2)N=C1c1ccccc1O | > 2500 nM | > 2500 nM |  |  |  |  |  |  |  |  |  |
| > 2500 nM | CCC1=C(CC)/C(=C/NC23C[C@H]4C[C@@H](C2)C[C@@H](C3)C4)N=C1c1ccccc1OC | > 2500 nM | > 2500 nM |  |  |  |  |  |  |  |  |  |
| > 2500 nM | CCC1=C(CC)/C(=C/NC2CCCCCC2)N=C1c1ccn[nH]1 | > 2500 nM | > 2500 nM |  |  |  |  |  |  |  |  |  |
| > 2500 nM | CCC1=C(CC)/C(=C/NC2CCCCCCC2)N=C1c1ccn[nH]1 | > 2500 nM | > 2500 nM |  |  |  |  |  |  |  |  |  |
| > 2500 nM | CCC1=C(CC)/C(=C/NC2CCCCC2)N=C1c1ccccc1OC | > 2500 nM | > 2500 nM |  |  |  |  |  |  |  |  |  |
| > 2500 nM | CCC1=C(CC)/C(=C/NC2CCCCC2)N=C1c1ccccc1OCCN(CC)CC | 1060 nM | 757 nM |  |  |  |  |  |  |  |  |  |
